Source: patent US20110237495A1, “FUNCTIONAL METABOLOMICS COUPLED MICROFLUIDIC CHEMOTAXIS DEVICE AND IDENTIFICATION OF NOVEL CELL MEDIATORS” (The Brigham and Women's Hospital, Inc. Corporate Sponsored …, priority 2008, published 2011)
Entries after “also recorded” stand apart in the source; their conditions may differ.

Assays:
[1] = test system: leukocyte infiltration in lung tissues; assay: Hind-limb ischemia-reperfusion-induced second-organ (lung) injury, lung MPO by ELISA; type: in vivo, mice; settings: for percent reduction of MPO found in lungs (FIG. 11), mean±SEM: 1 μg i.v. in vehicle, ischemia-reperfusion
Description: To identify the effects of the resolvins and protectins on inflammation resolution, ischemia-reperfusion induced second-organ injury experiments were designed and are illustrated in FIGS. 7A-D. Mice were anesthetized by intraperitoneal injection of pentobarbital (80 mg kg^−1, Nembutal sodium solution NDC 0074-3778-04). Hind-limb ischemia was initiated using tourniquets consisting of a rubber band placed on each hind limb as in ref.^35. Mice were subjected to hind limb ischemia for 1 h, after which the tourniquets were removed to initiate reflow-reperfusion. Resolvins, related compounds and analogs were each administered at 1 μg/mouse (i.e., DHA, RvD1, RvD1 methyl ester, 17-(R/S)-methyl-RvD1 methyl ester, RvE1, or 19-p-fluorophenoxy-RvE1 methyl ester) in vehicle (5 μl ethanol in 120 μl sterile saline) or vehicle alone. They were administered intravenously to the tail vein ˜5 min before the start of the reperfusion period. At the end of this reperfusion period (2 h), the mice were euthanized with an overdose of anesthetic and the lungs were quickly harvested, frozen in liquid nitrogen, and stored at −80° C. The right lungs were homogenized from individual mice and centrifuged, and the tissue levels of myeloperoxidase (MPO) (a leukocyte marker enzyme) in the resulting supernatants, for each experimental protocol, were determined using a mouse MPO enzyme-linked immunosorbent assay (Hycult biotechnology, Cell Sciences, Uden, The Netherlands).
Briefly, as illustrated in the time-course shown in FIG. 7A, hind-limb ischemia was induced in mice by creating tourniquets using a rubber band on each hind limb. After 1 h, the tourniquets were removed and reperfusion ensued. Test compounds (1 μg of DHA, RvD1, RvE1) in vehicle were administered intravenously 5 min before the start of the reperfusion period. At the end of the reperfusion period (2 h), lungs were collected and MPO concentrations were determined by ELISA. FIGS. 7B and C are representative images from histological analysis. FIG. 9B is a photomicrograph showing a hematoxylin/eosin-stained lung from ischemia/reperfusion second organ injury (control). […] Mean±SEM (n=3-5, control; n=12).
Ischemia/reperfusion is a well-appreciated pathophysiologic mechanism of organ injury and local tissue damage that can be initiated by excessively activated PMN. This system in the mouse, models the second organ injury observed in humans following tourniquet release of vessels in surgery involving, for example, extremities^41, 42. Remote or second organ injury can also occur when blood vessels are occluded, or during certain surgical procedures that create local ischemia and remote organ injury that has many features of rapid, acute inflammation and tissue damage^35. On release of the tourniquet occlusion, reflow is initiated and activated PMN rapidly infiltrate secondary organs, causing damage^35. Here, the inventors evaluated RvD1 in a remote organ injury system, i.e., hind-limb ischemia/reperfusion, to assess whether RvD1's ability to inhibit PMN migration, in vitro, in microchambers (FIGS. 8A-C, 9-11) can be predictive of their effect to reduce PMN mediated tissue and organ damage in vivo. […] The extent of lung tissue injury is associated with PMN activation and organ infiltration^35.

human PMN = assay: Microfluidic chemotaxis device: PMN chemotaxis in IL-8 gradient; type: cell-based; settings: 10 nM (DHA equimolar), PMN captured on P-selectin from a drop of whole blood, n=12
Source text: A new microvolume chemotaxis device was designed using polyethylene glycol (PEG) that allows testing the chemotactic function of neutrophils and their responses to these novel lipid mediators immediately after being separated from whole blood within the device. One exemplary embodiment of the device is illustrated in FIGS. 8A-C. In this embodiment, the microvolume chemotaxis device with microstructured valves was fabricated using “lab-on-chip” microfabrication technologies^36. Briefly, two silicon wafers were coated with a 50-μm-thick layer of SU8 photoresist (MicroChem, Newton, Mass.). After exposure to UV light through a mylar mask in a mask, aligner and development following manufacturer recommendations, 50 μm-tall features were produced on top of the silicon wafers. Subsequently, poly (dimethylsiloxane) (PDMS, Dow Corning, Midland, Mich.) was prepared by mixing two components in 10:1 ratio, as recommended by the manufacturer. […]
After assembly, different sections of the device were chemically modified for specific functionalities. […] The surface of the chemotaxis chamber, where neutrophils were captured and assessed for their chemotactic responses, were modified by physical adsorption of P-selectin (10 ng/mL for 30 minutes, R&D Systems, Minneapolis, Minn.) immediately before use. […]

[2] = Zymosan A-induced murine peritonitis: appearance of i.v. labeled omega-3 fatty acids in peritoneal exudates; type: in vivo, male FVB mice; settings: for time of maximum level in peritoneal exudate: 1 μg/mouse i.v. just before i.p. zymosan A, GC-MS; for exudate level at 48 h compared with 24 h: 1 μg/mouse i.v., p<0.05
Description: Male FVB mice were anesthetized with isoflurane (Hospira Inc, Lake Forest, Ill.). Both 1 μg d5-DHA (4Z,7Z,10Z,13Z,16Z,19Z-docosahexaenoic-21,21,22,22,22-d5 acid: Cayman Chemical, Ann Arbor, Mich.) and 1 μg d5-EPA (5Z,8Z,11Z,14Z,17Z-eicosapentaenoic-19,19′,20,20,20-d5 acid: Cayman Chemical, Ann Arbor, Mich.) in 100 μl of 2% ethanol (v/v) in saline or vehicle alone were administered by bolus tail vein injection. Approximately five minutes later, peritonitis was initiated with intraperitoneal administration of 1 mg of zymosan A (Sigma Aldrich, St. Louis, Mo.). At indicated time intervals, mice were euthanized with an overdose of isoflurane, and peritoneal exudates were collected by lavage with 5 ml of DPBS without either Ca^2+ or Mg^2+. Exudate cells and supernatants were separated by centrifugation (10 min, 1000 rpm, 4° C.), aliquots of supernatants were collected, and 4 volumes of cold acetone were added to precipitate proteins. Serum albumin and total protein levels were determined^32.
Briefly, FVB mice (6-8 wk) received d5-EPA and d5-DHA i.v. (1 μg/mouse of each) (FIG. 4D, top panel) just before i.p. challenge with zymosan A (1 mg/ml/mouse) (FIG. 4D, middle panel). Peritoneal exudates were collected at 0, 2, 4, 12, 24 and 48 h and taken to solid phase extraction. Eluate fractions were treated with diazomethane and taken to GC-MS. Results represent the mean±SEM from n=3, separate mice. Mass spectra of d5-EPA methyl ester and d5-DHA methyl ester. d5-EPA and d5-DHA were derivatized into methyl esters and submitted to GC-MS for analysis shown in FIGS. 4A-C.
For tracer experiments, mice were fasted overnight (˜18 h) before 500 nCi of [1-^14C]-DHA (docosahexaenoic acid 4,7,10,13,16,19-[1-^14C], American Radiolabeled Chemicals Inc, St. Louis, Mo.) was injected via the tail vein. At indicated time intervals, exudates were collected (vide supra) and the radioactivity was determined using a scintillation counter (Multi-purpose scintillation counter LS6500, Beckman Coulter, Fullerton, Calif.).
Upon collection of peritoneal exudates, 2 volumes of cold methanol and internal standard (500 ng/sample, trans-parinaric acid, Molecular Probe, Eugene, Oreg.) were added to exudates, which were stored at −20° C. for 1 hr. After centrifugation, samples were diluted and applied to C18 cartridge columns (Extract-Clean EV SPE, Alltech, Deerfield, Ill.). Lipids were extracted using hexane and methyl formate and each fraction was collected and its unesterified fatty acids converted to corresponding methyl ester using diazomethane treatment^34. The esters were suspended in hexane, and then injected in GC-MS. Electron-impact GC-MS was carried out using an HP 6890 GC system with HP5973 Mass Selective Detector (Hewlett-Packard) equipped with an HP-5MS capillary column (0.25 mm ID×30 m, 0.25 μm, Agilent Technologies Inc., Wilmington, Del.) operating at a mass range from m/z 70 to 800. The ionization voltage was 70 eV and the ion source temperature was 230° C. Chromatography was carried out using a column temperature maintained at 150° C. for 2 min and then programmed to increase 10° C./min up to 230° C., 5° C./min up to 280° C., and then maintained at 280° C. for 10 min. EPA and DHA were separated and the area beneath each chromatographic peak of their deuterium labels was obtained by integration using a Chemstation integrator Version D.02.00.275 (Agilent Technologies Inc). […] The inventors selected the ω-3 ion ((CH)3CH2(CH)2CD2CD3=113) for both d5-EPA (FIG. 4A) and d5-DHA (FIG. 4B) methyl ester and M^+(290) for methyl parinate (FIG. 4C). Identification was conducted by examining and retention times as in FIGS. 4A-C (d5-EPA-methyl ester: 11.7 min FIG. 4A, inset, methyl-parinarate; 13.1 min (FIG. 4C, and d5-DHA; 13.9 min, FIG. 4B, inset). Calibration curves were obtained for each: d5-EPA; y=0.0016x+0.0313 (r^2=0.9954, 50-500 ng/ml), d5-DHA; y=0.0015x-0.0524 (r^2=0.9809, 50-500 ng/ml). […]

Question: With `CC/C=C\CC(C)(O)/C=C/C=C\C=C\C=C\[C@@H](O)[C@@H](O)C/C=C\CCC(=O)OC` (mixture of isomers) [17-(R/S)-methyl-RvD1-Me, 17-(R/S)-methyl-RvD1 carboxymethyl ester] as the compound, how does the “percent reduction of MPO found in lungs (FIG. 11), mean±SEM” value [1] read?
Answer: 29.3 ±6.4%

Question: With `CC/C=C\C[C@H](O)/C=C/C=C\C=C\C=C\[C@@H](O)[C@@H](O)C/C=C\CCC(=O)O` [RvD1, 7S,8R,17S-trihydroxy-4Z,9E,11E,13Z,15E,19Z-docosahexaenoic acid] as the compound, how does the “reduction of lung MPO concentration (FIG. 7D), mean±SEM” value ([1]; 1 μg i.v. 5 min before reperfusion, lungs collected after 2 h reperfusion) read?
Answer: 47.5±2.4

Question: And the “reduction of leukocyte infiltration” value ([1]; 1 μg/mouse, ischemia/reperfusion injury)?
Answer: ~50%

Question: What about the “effect on PMN migration (chemotaxis) in IL-8 gradient” value (human PMN) of the same compound?
Answer: essentially completely stop PMN movements; also recorded: chemotaxis immediately ceased

Question: For `CC/C=C\C[C@H](O)/C=C/C=C\C=C\C=C\[C@@H](O)[C@@H](O)C/C=C\CCC(=O)OC` [RvD1-Me, RvD1 carboxymethyl ester], which “percent reduction of MPO found in lungs (FIG. 11), mean±SEM” value [1] is on record?
Answer: 22.9 ±6.8%

Question: For `CC/C=C\C/C=C\C/C=C\C/C=C\C/C=C\C/C=C\CCC(=O)O` [^14C-DHA, docosahexaenoic acid 4,7,10,13,16,19-[1-^14C]], which “time at which 14C label reached maximal levels in exudate” value ([2]; 500 nCi i.v., mice fasted overnight, scintillation counting) is on record?
Answer: 1 h

Question: What about the “effect on leukocyte trafficking (FACS analysis of exudates)” value ([2]; tracer levels i.v.) of the same compound?
Answer: did not reduce leukocyte trafficking

Question: Which results are given for `[2H]C([2H])([2H])C([2H])([2H])/C=C\C/C=C\C/C=C\C/C=C\C/C=C\C/C=C\CCC(=O)O` [d5-DHA, 4Z,7Z,10Z,13Z,16Z,19Z-docosahexaenoic-21,21,22,22,22-d5 acid]?
Answer: time of maximum level in peritoneal exudate [2]: 2 h; exudate level at 48 h compared with 24 h [2]: significantly greater than at 24 h

Question: Which “time of maximum level in peritoneal exudate” value [2] does the source give for `[2H]C([2H])([2H])C([2H])([2H])/C=C\C/C=C\C/C=C\C/C=C\C/C=C\CCCC(=O)O` [d5-EPA, 5Z,8Z,11Z,14Z,17Z-eicosapentaenoic-19,19′,20,20,20-d5 acid] here?
Answer: 4 h

Question: What about the “exudate level at 48 h compared with 24 h” value [2] of the same compound?
Answer: significantly greater than at 24 h
